Patent US20020133846A1, “Method for protecting plants” (priority 1996, published 2002)
Where two headings read alike, the source gives them in different places.

Columns and labels:
Cercospora sp. = test: Action against Cercospora sp. (leaf spot) on chili, field; type: in vivo; conditions: Table 17, leaves after sixth spraying, comp. I alone 5 ppm
Puccinia recondita = test: Action against Puccinia recondita in wheat; conditions: Table 19, comp. I alone 100 mg a.i. per liter
Description: 7-day-old wheat plants were sprayed to drip point with a spray mixture prepared from a formulated active ingredient, or combination of active ingredients. After 4 days, the treated plants were infected with a conidia suspension of the fungus, and the treated plants were subsequently incubated for 2 days at a relative atmospheric humidity of 90-100% and 20 C. 10 days post-infection, the fungus infestation was assessed.

[1] = test system: Peronospora parasitica isolate Emwa; test: Fungal resistance to Peronospora parasitica Emwa after BTH treatment, Ws and NIM1-overexpressing lines; type: in vivo; conditions: 10 μM BTH
[2] = test system: Peronospora parasitica NoCo2; test: whole plant or invertebrate; type: in vivo; conditions: Hyaloperonospora parasitica, in Arabidopsis thaliana
Phytophthora infestans = type: in vivo
Erysiphe graminis [3] = test: Action against Erysiphe graminis in wheat, field trials
Description: In field trials (10 m^2), winter wheat in the growth phase was sprayed with a spray mixture prepared with a wettable powder of the active ingredient. Infection was naturally. 10 days post-infection, the fungus infestation was assessed.

Pyricularia oryzae [4] = type: in vivo; conditions: Table 13, comp. I alone 6 ppm
Peronospora tabacina = test: Action against Peronospora tabacina on tobacco plants
Description: Tobacco plants (6 weeks old) were sprayed with a formulated solution of the test compound. Four days after treatment, the plants were inoculated with a sporangia suspension of the fungus, kept at high humidity for 4 to 5 days and then incubated further under a normal day/night sequence. Evaluation of the symptoms in the tests was based on the leaf surface infested with fungus. The infestation of the untreated plants corresponded to 0 % action.

PR-1 gene expression = test: Northern analysis of PR-1 gene expression after BTH treatment, Ws and NIM1-overexpressing lines; type: in vivo, Arabidopsis thaliana; conditions: for PR-1 gene expression: 10 μM BTH
Cercospora nicotianae = test: Action against Cercospora nicotianae on tobacco plants; type: in vivo
[5] = Action on crop yield of chili, field; type: in vivo; conditions: Table 18, harvest after sixth spraying, comp. I alone 5 ppm
Erysiphe graminis [6] = test: Action against Erysiphe graminis on barley (residual-protective / systemic)
Description: Residual-protective action: Barley plants about 8 cm in height were sprayed to drip point with an aqueous spray mixture (max. 0.02 % active ingredient) and were dusted 3 to 4 days later with conidia of the fungus. The infected plants were stood in a greenhouse at 22°. Fungus infestation was generally evaluated 10 days after infection.
Systemic action: Barley plants about 8 cm in height were watered with an aqueous spray mixture (max. 0.002 % active ingredient, based on the volume of the soil). […] The plants were dusted with conidia of the fungus 3 to 4 days later. The infected plants were stood in a greenhouse at 22°. Fungus infestation was generally evaluated 10 days after infection.

Mycosphaerella fijiensis = test: Action against Mycosphaerella fijiensis in bananas; conditions: Table 23, comp. I alone 50 g a.i. per ha
Description: 40 banana plants in a 300 m^2 plot were sprayed at 17-19 day intervals with a spray mixture prepared with the wettable powder of the active ingredient; in total 6 times. Infection was naturally. For evaluation, the leaf infested with the fungus was measured.

Alternaria solani = test: Action against Alternaria solani in tomatoes in the open; conditions: Table 24, comp. I alone 2.5 g a.i. per ha
Description: Tomato plants on a 7 m^2 plot were sprayed at 7-day intervals with a spray mixture prepared wettable powder of the active ingredient; in total 9 times. Infection was naturally. For ion, the leaf infested with the fungus was measured.

Pyricularia oryzae [7] = type: in vivo
Colletotrichum sp. = test: Action against Colletotrichum sp. (anthracnose) on chili, field; type: in vivo; conditions: Table 16, chili fruits after fifth spraying, comp. I alone 5 ppm
Description: Effects on crop yield: In a plot of land about 10 m^2 (test location: Cikampek, Java, Indonesia), chili plants were sprayed a total of 7 times at intervals of about 7 days with 500-700 liters of spray mixture per hectare. Three days after the first spraying, the plants were infected artificially with the fungus.

Pyricularia oryzae [8] = type: in vivo; remark: listed apart in the source
[9] = test system: Peronospora parasitica Emwa; test: Action against Peronospora parasitica Emwa in Arabidopsis thaliana (Ws), rRNA fungal probe; type: in vivo; conditions: Hyaloperonospora parasitica, in Arabidopsis thaliana; for inhibition at 10 µM: BTH alone 0.01 mM
[10] = test system: Peronospora parasitica NoCo2; test: Action against Peronospora parasitica NoCo2 in Arabidopsis thaliana (Col-0), rRNA fungal probe; type: in vivo; conditions: Table 29, Col-0, BTH alone 0.01 mM
[11] = test system: Colletotrichum lagenarium; test: Action against Colletotrichum lagenarium on Cucumis sativus L., soil application; type: in vivo
[12] = test system: Pseudomonas syringae DC3000; test: Infection with Pseudomonas syringae DC3000 in Arabidopsis, Example 17; conditions: wild-type plants pretreated with INA (0.25 mg/ml)
Description: Six-week-old wild-type (±INA treatment), and cim3 plants were inoculated with a suspension of P. syringae DC3000 and the progress of the disease was followed by monitoring the growth of the bacteria extracted from infected leaves over time. […] The plants were also visually inspected for disease symptoms.
For this example, cultures of Pseudomonas syringae pv. tomato strain DC3000 were grown on King's B media (agar plates or liquid) plus rifampicin (50 jig/ml) at 28° C. […] An overnight culture was diluted and resuspended in 10 mM MgCT2 to a density of 2-5×10^5 cells per ml and injected into Arabidopsis leaves. Injections were carried out by creating a small hole with a 28 gauge needle midway up the leaf and then injecting approximately 250 μl of the diluted bacterial solution with a 1 cc syringe. At various time points, 10 random samples consisting of 3 random leaf punches from a #1 cork borer were taken from 10 plants from each treatment. The 3 leaf punches were placed in an eppendorf tube with 300 μl of 10 MM MgCl2 and ground with a pestle. The resulting bacterial suspension was appropriately diluted and plated on King's B media plus rifampicin (50 μg/ml) and grown for 4 days at 28° C. Bacterial colonies were counted and the data were subjected to Student's t statistical analysis (Sokal and Rohlf (1981), Biometry, 2nd ed. New York: W.H. Freeman and Company). […]

[13] = test system: Peronospora parasitica (NoCo2); test: Resistance to Peronospora parasitica (NoCo2) in Arabidopsis, Example 17; type: in vivo; conditions: wild type Col-0 plants treated with INA 0.25 mg/ml, seven days after inoculation

CSC(=O)c1cccc2nnsc12 [BTH]
% action O (observed) (Cercospora sp.): 76% | % action O (observed) (Puccinia recondita): 51% | resistance to P. parasitica ([1]; NIM1-overexpressing lines): complete or almost complete resistance | susceptibility to P. parasitica (Emwa) ([1]; wild-type Ws plants): still susceptible | inhibition at 30 µM ([2]; read-out: Fungal Growth Inhibition % O (observed), Table 34, wt Col-0, BTH 0.03 mM): 20.8% | inhibition at 100 µM ([2]; read-out: Fungal Growth Inhibition % O (observed), Table 34, wt Col-0, BTH 0.1 mM): 85.7% | % action O (observed) (Phytophthora infestans; Table 25, comp. I alone 5 mg a.i. per liter): 14% | % action O (observed) (Phytophthora infestans; Table 25, comp. I alone 25 mg a.i. per liter): 36% | % action O (observed) (Phytophthora infestans; Table 25, comp. I alone 100 mg a.i. per liter): 61% | % action O (observed) (Phytophthora infestans; Table 25, comp. I alone 500 mg a.i. per liter): 72% | % action O (observed) (Erysiphe graminis [3]; Table 21, comp. I alone 5 g a.i. per ha): 29% | % action O (observed) (Erysiphe graminis [3]; Table 22, comp. I alone 5 g a.i. per ha): 29% | % action O (observed) (Pyricularia oryzae [4]): 15% | % action O (observed) (Peronospora tabacina; Table 28, comp. I alone 0.03 ppm): 14% | % action O (observed) (Peronospora tabacina; Table 28, comp. I alone 0.1 ppm): 34% | % action O (observed) (Peronospora tabacina; Table 28, comp. I alone 0.3 ppm): 88% | PR-1 gene expression in leaf tissue (PR-1 gene expression; NIM1-overexpressing lines relative to wild-type, 100 μM BTH): much stronger and quicker | PR-1 gene expression (PR-1 gene expression; NIM1-overexpressing lines): much stronger response | PR-1 gene expression (PR-1 gene expression; wild-type Ws line): barely detectable | % action O (observed) (Cercospora nicotianae; Table 9, comp. I alone 0.2 ppm): 0% | % action O (observed) (Cercospora nicotianae; Table 9, comp. I alone 2 ppm): 17% | % action O (observed) (Cercospora nicotianae; Table 9, comp. I alone 6 ppm): 55% | % action O (observed) (Cercospora nicotianae; Table 9, comp. I alone 20 ppm): 78% | % action O (observed) (Cercospora nicotianae; Table 10, comp. I alone 0.2 ppm): 0% | % action O (observed) (Cercospora nicotianae; Table 10, comp. I alone 2 ppm): 17% | % action O (observed) (Cercospora nicotianae; Table 10, comp. I alone 6 ppm): 55% | % action O (observed) (Cercospora nicotianae; Table 10, comp. I alone 20 ppm): 78% | Crop yield in kg per hectare O (observed) [5]: 459 kg per hectare | % action O (observed) (Erysiphe graminis [6]; Table 3, comp. I alone 0.6 ppm): 14% | % action O (observed) (Erysiphe graminis [6]; Table 3, comp. I alone 2 ppm): 33% | % action O (observed) (Mycosphaerella fijiensis): 19% | % action O (observed) (Alternaria solani): 32% | % action O (observed) (Pyricularia oryzae [7]; Table 14, comp. I alone 0.25 kg a.i. per ha): 22% | % action O (observed) (Pyricularia oryzae [7]; Table 14, comp. I alone 0.5 kg a.i. per ha): 50% | % action O (observed) (Colletotrichum sp.): 55% | % action O (observed) (Pyricularia oryzae [8]; Table 15, comp. I alone 0.05 ppm): 5% | % action O (observed) (Pyricularia oryzae [8]; Table 15, comp. I alone 0.1 ppm): 18% | % action O (observed) (Pyricularia oryzae [8]; Table 15, comp. I alone 0.25 ppm): 39% | % action O (observed) (Pyricularia oryzae [8]; Table 15, comp. I alone 0.5 ppm): 65% | inhibition at 3 µM ([9]; Table 30, Ws, BTH alone 0.003 mM, read-out: Fungal Growth Inhibition % O (observed)): 0% | inhibition at 10 µM ([9]; Table 30, Ws, read-out: Fungal Growth Inhibition % O (observed)): 20% | inhibition at 10 µM ([9]; Table 31, Ws, read-out: Fungal Growth Inhibition % O (observed)): 30% | inhibition at 10 µM ([9]; Table 32, Ws, read-out: Fungal Growth Inhibition % O (observed)): 30% | inhibition at 10 µM ([9]; text summary of Tables 30-32, Ws plants, read-out: fungal growth inhibition): 20 to 30% | inhibition at 10 µM ([10]; Hyaloperonospora parasitica, in Arabidopsis thaliana, read-out: Fungal Growth Inhibition % O (observed)): 0% | Fungal Growth Inhibition % O (observed) [10]: no fungal growth inhibition | % action O (observed) ([11]; Table 8, comp. I alone 0.02 ppm): 6% | % action O (observed) ([11]; Table 8, comp. I alone 0.2 ppm): 36% | % action O (observed) ([11]; Table 8, test 1, comp. I alone 0.06 ppm): 0% | % action O (observed) ([11]; Table 8, test 3, comp. I alone 0.06 ppm): 23%

O=C(O)c1cc(Cl)nc(Cl)c1 [INA, 2,6-dichloroisonicotinic acid]
disease symptoms (visual inspection) [12]: nearly devoid of disease symptoms | fungal growth (trypan blue, sporulation) [13]: no fungal growth
